From patent US11612586B2, “Indole regulation of antigen presenting cells” (THE TEXAS A&M UNIVERSITY SYSTEM, priority 2016, dated 2023)

Columns and labels:
[1] = test system: Salmonella Pathogenicity Island-1 (SPI-1) genes; test: Expression of Salmonella Pathogenicity Island-1 genes; type: cell-based, Salmonella Typhimurium
[2] = test system: Erk; test: phospho-Erk signaling in BMDMs; type: cell-based, mouse
Description: The PI3K/Akt and MAPK/Erk signaling pathways regulate many cellular processes including survival, apoptosis, growth, and cytokine production. […] Specifically, BMDMs were treated with indole (1 mM) or DMF control for 18 hours, then stimulated with LPS (10 ug/ml) or CpG (5 uM) for 30 minutes. Cells were stained for phospho-Akt or phospho-Erk and analyzed by flow cytometry.
(§1) The inventors performed a series of assays where bone marrow derived macrophages (BMDMs), bone marrow derived dendritic cells (BMDCs), and splenic dendritic cells (splenic DCs), were exposed to a series of TDMMs, including indole, indole-3-acetate (I3AT), 5-hydroxyindole (5HI), and indole-3-pyruvate (I3P), as well as indole-3-carbinol (I3C; a plant derived compound) to be used for a positive control (1 mM for 24 hours). The BMDMs and BMDCs were stimulated with LPS for 4 hours and assayed at day 7 for expression of various pro-inflammatory cytokines. In a similar assay, the BMDMs and BMDCs were stimulated with LPS or CpG, respectively, for 15 minutes and assayed for pAKT and pERK signaling, which is a reflection of pro-inflammatory response.

[3] = test system: TLR4; test: Surface TLR4 expression on DC2.4 and BMDC; conditions: DC2.4 and BMDC 18 hours indole, BMDC indole from day 3
[4] = test system: naïve CD4+CD25− T cells; test: DC-T cell co-culture, monoclonal (OT-II, OVA323-339) stimulation: Foxp3+ Treg induction; type: cell-based, mouse
Description: FIG. 16 graphically illustrates that indole-conditioned DCs preferentially induce Foxp3+ Tregs (monoclonal stimulation). Naïve CD4+CD25− T cells from OT-II TCR transgenic mice were isolated and labeled with cell proliferation dye. Naïve T cells were then co-cultured with OVA323-339 peptide-loaded BMDCs for 72 hours in the presence of TGF-β as indicated. BMDCs were previously treated with indole, RA, or DMF from day 3. Following 3 days of co-culture, surface and intracellular staining was performed for flow cytometric analysis. The mean percentage of Foxp3-positive […] from four independent experiments is shown. * indicates p<0.05 for one-way ANOVA followed by Dunnett's post-test.
FIGS. 20A and 20B graphically illustrate that T cell skewing mediated by indole-conditioned DCs is AhR-independent. BMDCs were differentiated from WT or AhR-KO mice and conditioned with indole, RA, or DMF from day 3. DCs were then loaded with OVA323-339 and co-cultured with naïve CD4+CD25− T cells from OT-II transgenic mice for 72 hours. For Th1 cultures, T cells were restimulated with PMA and ionomycin in the presence of golgiplug for the last 5 hours of culture. Subsequently, all cultures were stained and analyzed by flow cytometry for Foxp3 to identify Tregs or (B) IFNγ to identify Th1 cells.
To investigate whether indole-conditioned DCs preferentially induce Tregs, a co-culture system using FACS-sorted wild-type naïve CD4+CD25− T cells was employed. These naïve T cells were activated by antibodies against CD3 and CD28 in the presence of indole-conditioned BMDCs and cultured for 72 hours. Under this platform for polyclonal stimulation, a 2-fold increase in Treg induction in indole-DC cultures compared to controls was observed (FIG. 15). Additionally, the inventors pursued the same question in a more physiologically relevant model; i.e., under monoclonal T cell stimulation. […]

[5] = test system: HeLa cells; test: Salmonella invasion of indole-treated HeLa cells (colonization resistance); type: cell-based; conditions: host cells treated with indole
[6] = test system: IL-6; test: IL-6 production in BMDCs, intracellular staining, flow cytometry; type: cell-based, mouse; conditions: indole 24 hours (overnight), LPS 1 ug/ml 4 hours
Description: (§2) Briefly, bone marrow was harvested from femurs of mice and cultured for 7 days in the presence of DC-skewing cytokines, GM-CSF and IL-4. […] The pro-inflammatory cytokines, IL-6 and IL-12, were specifically queried. […] Immune cells communicate largely through the production of soluble factors including cytokines, and DCs detect these signals and determine their effector functions accordingly.

[7] = test system: TNF; test: TNF production in BMDCs, intracellular staining, flow cytometry; type: cell-based, mouse; conditions: 1 mM TDMM 24 hours, LPS (1 ug/ml) 4 hours
Description: Intracellular staining was performed to assess TNF production.
Intracellular staining was performed to assess TNF (FIG. 3A) and IL-12 (FIG. 3B) production.
as §2, §1

## c1ccc2[nH]ccc2c1 [Indole, indole]
[1]
  expression of four SPI-1 genes involved in invasion: decrease in expression
[1]; indole together with short chain fatty acids
  effect of short chain fatty acids on attenuation of SPI-1 gene expression: synergistically enhanced
[2]; 1 mM TDMM 24 hours, LPS 1 ug/ml 15 minutes
  pERK: ↓
[2]; indole 1 mM 18 hours, LPS (10 ug/ml) or CpG (5 uM) 30 minutes
  dampening of pErk signaling: approximately 50%
[3]
  surface TLR4 expression on DCs: does not alter surface TLR4 expression
[4]; BMDCs conditioned with indole, exogenous TGF-β absent or 2 ng/ml
  Treg induction above solvent controls: Significance was not reached
[4]; OT-II T cells with OVA-loaded BMDCs conditioned with indole, TGF-β at 10 and 30 ng/ml
  Treg induction above solvent controls: 3.5 fold
[4]; indole-conditioned BMDCs from wild-type or AhR−/− mice
  AhR dependence of Treg skewing: entirely independent of AhR
[5]
  reduction of Salmonella invasion of indole-treated HeLa cells: 70%
[6]
  inhibition of IL-6 production: ≥ 2 fold
[7]
  TNF: ↓↓
